Results on four sequences are retold here after US20070128217A1 (priority 2003, published 2007).

Assay [1] concerns control sera (pooled serum of ten healthy LUMC hospital workers; commercial negative donor pooled serum from the Dutch bloodbank). The format is binding, human. More on the design: Binding of Control serum LUMC to linear peptides / Binding of Control serum Blood-bank to linear peptides / Binding of Control serum LUMC to looped peptides / Binding of Control Serum Blood-Bank to Looped peptides / Binding of Control serum LUMC to linear peptides of the protein M of SARS-CoV Urbani / Binding of Control serum Blood-bank to linear peptides of the protein M of SARS-CoV Urbani / Binding of Control serum LUMC to looped peptides of the protein M of SARS-CoV Urbani / Binding of Control Serum Blood-Bank to Looped peptides of the protein M of SARS-CoV Urbani: unit not given here.

Assay [2] concerns rabbit serum obtained by immunizing a rabbit with the SARS-CoV strain Frankfurt 1. It is filed as binding. More on the design: Binding of a rabbit serum to linear peptides / Binding of a rabbit serum to looped peptides / Rabbit serum linear peptides / Rabbit serum looped peptides / Binding of a rabbit serum to linear peptides of protein N of SARS-CoV Urbani (Rabbit serum linear peptides) / Binding of a rabbit serum to looped/cyclic peptides of protein N of SARS-CoV Urbani (Rabbit serum looped peptides): unit not given here.

Assay [3] concerns antibodies in sera from SARS patients (sera 1a, 1b, 2, 6, 37, 62, London, SARS-yellow, SARS-green). The format is binding, human. More on the design: Binding of serum 6 to linear peptides of protein X1 of SARS-CoV Urbani / Binding of serum 37 to linear peptides of protein X1 of SARS-CoV Urbani / Binding of serum 6 to looped/cyclic peptide (PEPSCAN-ELISA) / Binding of serum 37 to looped/cyclic peptide (PEPSCAN-ELISA) / Binding of serum 37 to looped/cyclic peptides of protein X1 of SARS-CoV Urbani / Binding of serum 6 to linear peptides of protein X2 / Binding of serum 37 to linear peptides of protein X2 / Binding of serum 37 to looped/cyclic peptides of protein X2 of SARS-CoV Urbani / Binding of serum 6 to linear peptides of protein M of SARS-CoV Urbani / Binding of serum 37 to linear peptides of protein M of SARS-CoV Urbani / Binding of serum 6 to looped/cyclic peptides of protein M of SARS-CoV Urbani / Binding of serum 37 to looped/cyclic peptides of protein M of SARS-CoV Urbani / Binding of serum 6 to linear peptides of protein X3 of SARS-CoV Urbani / Binding of serum 37 to linear peptides of protein X3 of SARS-CoV Urbani / Binding of serum 37 to looped/cyclic peptides of protein X3 of SARS-CoV Urbani / Binding of serum 6 to linear peptides of protein X4 of SARS-CoV Urbani / Binding of serum 37 to linear peptides of protein X4 of SARS-CoV Urbani / Binding of serum 37 to looped/cyclic peptides of protein X4 of SARS-CoV Urbani / Binding of serum 6 to linear peptides of protein X5 of SARS-CoV Urbani / Binding of serum 37 to linear peptides of protein X5 of SARS-CoV Urbani / Binding of serum 37 to looped/cyclic peptides of protein X5 of SARS-CoV Urbani / Binding of serum 6 to linear peptides of protein N of SARS-CoV Urbani / Binding of serum 37 to linear peptides of protein N of SARS-CoV Urbani / Binding of serum 6 to linear peptide (PEPSCAN-ELISA) / Binding of serum 1a to looped/cyclic peptides of protein N of SARS-CoV Urbani / Binding of serum 1b to looped/cyclic peptides of protein N of SARS-CoV Urbani / Binding of serum 2 to looped/cyclic peptides of protein N of SARS-CoV Urbani / Binding of serum 6 to looped/cyclic peptides of protein N of SARS-CoV Urbani / Binding of serum 37 to looped/cyclic peptides of protein N of SARS-CoV Urbani / Binding of serum 62 to looped/cyclic peptides of protein N of SARS-CoV Urbani / Binding of serum London to looped/cyclic peptides of protein N of SARS-CoV Urbani / Binding of serum SARS-green to looped/cyclic peptides of protein N of SARS-CoV Urbani: unit not given here.

Regarding IYSHLLLVAAGMEAQ, in assay [1], the “Binding of Control Serum Blood-Bank to Looped peptides” value turned out to be 0.4, the “Binding of Control serum Blood-bank to linear peptides” value is given as 0.5, the “Binding of Control serum LUMC to linear peptides” value was found to be 0.5 and the “Binding of Control serum LUMC to looped peptides” value came to 0.5. In addition, in assay [2], the “Binding of a rabbit serum to linear peptides” value was 0.1 and the “Binding of a rabbit serum to looped peptides” value is 0.4. In addition, in assay [3], the “Binding of serum 1a to linear peptides of protein X1 of SARS-CoV Urbani” value was 0.6, the “Binding of serum 1a to looped/cyclic peptide (PEPSCAN-ELISA)” value was determined as 0.5, the “Binding of serum 1b to linear peptides of protein X1 of SARS-CoV Urbani” value stood at 0.5 and the “Binding of serum 1b to looped/cyclic peptide (PEPSCAN-ELISA)” value is given as 0.4. For the same sequence, in assay [3], the “Binding of serum 2 to linear peptides of protein X1 of SARS-CoV Urbani” value amounted to 0.5, the “Binding of serum 2 to looped/cyclic peptide (PEPSCAN-ELISA)” value stood at 0.3, the “Binding of serum 6 to linear peptides of protein X1 of SARS-CoV Urbani” value came out at 0.4 and the “Binding of serum 6 to looped/cyclic peptide (PEPSCAN-ELISA)” value was determined as 0.3. In addition, in assay [3], the “Binding of serum 37 to linear peptides of protein X1 of SARS-CoV Urbani” value was determined as 0.6, the “Binding of serum 37 to looped/cyclic peptide (PEPSCAN-ELISA)” value was determined as 0.5, the “Binding of serum 62 to linear peptides of protein X1 of SARS-CoV Urbani” value stood at 0.6 and the “Binding of serum 62 to looped/cyclic peptide (PEPSCAN-ELISA)” value was 0.5. Moreover, in assay [3], the “Binding of serum London to linear peptides of protein X1 of SARS-CoV Urbani” value came out at 0.3, the “Binding of serum London to looped/cyclic peptide (PEPSCAN-ELISA)” value is 0.2, the “Binding of serum SARS-green to linear peptides of protein X1 of SARS-CoV Urbani” value amounted to 0.2 and the “Binding of serum SARS-green to looped/cyclic peptide (PEPSCAN-ELISA)” value is recorded as 0.2. In assay [3], the “Binding of serum SARS-yellow to linear peptides of protein X1 of SARS-CoV Urbani” value was found to be 0.3 and the “Binding of serum SARS-yellow to looped/cyclic peptide (PEPSCAN-ELISA)” value was determined as 0.2.

With KCKSKNPLLYDANYF, in assay [1], the “Binding of Control Serum Blood-Bank to Looped peptides” value came out at 0.7, the “Binding of Control serum Blood-bank to linear peptides” value is on record as 0.6, the “Binding of Control serum LUMC to linear peptides” value was 0.5 and the “Binding of Control serum LUMC to looped peptides” value is listed as 0.7. In assay [2], the “Binding of a rabbit serum to linear peptides” value was 0.2 and the “Binding of a rabbit serum to looped peptides” value is 0.6. In assay [3], the “Binding of serum 1a to linear peptides of protein X1 of SARS-CoV Urbani” value came to 0.7, the “Binding of serum 1a to looped/cyclic peptide (PEPSCAN-ELISA)” value came out at 0.7, the “Binding of serum 1b to linear peptides of protein X1 of SARS-CoV Urbani” value stood at 0.4 and the “Binding of serum 1b to looped/cyclic peptide (PEPSCAN-ELISA)” value is given as 0.5. In addition, in assay [3], the “Binding of serum 2 to linear peptides of protein X1 of SARS-CoV Urbani” value turned out to be 0.5, the “Binding of serum 2 to looped/cyclic peptide (PEPSCAN-ELISA)” value is given as 0.4, the “Binding of serum 6 to linear peptides of protein X1 of SARS-CoV Urbani” value was 0.5 and the “Binding of serum 6 to looped/cyclic peptide (PEPSCAN-ELISA)” value is listed as 0.4. Moreover, in assay [3], the “Binding of serum 37 to linear peptides of protein X1 of SARS-CoV Urbani” value is listed as 0.6, the “Binding of serum 37 to looped/cyclic peptide (PEPSCAN-ELISA)” value is 0.8, the “Binding of serum 62 to linear peptides of protein X1 of SARS-CoV Urbani” value is 0.5 and the “Binding of serum 62 to looped/cyclic peptide (PEPSCAN-ELISA)” value stood at 0.7. Besides, in assay [3], the “Binding of serum London to linear peptides of protein X1 of SARS-CoV Urbani” value is listed as 0.2, the “Binding of serum London to looped/cyclic peptide (PEPSCAN-ELISA)” value is 0.3, the “Binding of serum SARS-green to linear peptides of protein X1 of SARS-CoV Urbani” value came out at 0.2 and the “Binding of serum SARS-green to looped/cyclic peptide (PEPSCAN-ELISA)” value was found to be 0.3. In assay [3], the “Binding of serum SARS-yellow to linear peptides of protein X1 of SARS-CoV Urbani” value came to 0.4 and the “Binding of serum SARS-yellow to looped/cyclic peptide (PEPSCAN-ELISA)” value was found to be 0.5.

In the case of KDYVVVHGYFTEVYY, in assay [1], the “Binding of Control Serum Blood-Bank to Looped peptides” value is given as 0.5, the “Binding of Control serum Blood-bank to linear peptides” value amounted to 0.5, the “Binding of Control serum LUMC to linear peptides” value is given as 0.6 and the “Binding of Control serum LUMC to looped peptides” value is on record as 0.5. Moreover, in assay [2], the “Binding of a rabbit serum to linear peptides” value was 0.1 and the “Binding of a rabbit serum to looped peptides” value is 0.5. Moreover, in assay [3], the “Binding of serum 1a to linear peptides of protein X1 of SARS-CoV Urbani” value worked out at 0.7, the “Binding of serum 1a to looped/cyclic peptides of protein X1 of SARS-CoV Urbani” value was determined as 0.5, the “Binding of serum 1b to linear peptides of protein X1 of SARS-CoV Urbani” value was found to be 0.6 and the “Binding of serum 1b to looped/cyclic peptides of protein X1 of SARS-CoV Urbani” value came to 0.4. In assay [3], the “Binding of serum 2 to linear peptides of protein X1 of SARS-CoV Urbani” value was 0.5, the “Binding of serum 2 to looped/cyclic peptides of protein X1 of SARS-CoV Urbani” value was found to be 0.4, the “Binding of serum 6 to linear peptides of protein X1 of SARS-CoV Urbani” value turned out to be 0.4 and the “Binding of serum 6 to looped/cyclic peptides of protein X1 of SARS-CoV Urbani” value is 0.2. In assay [3], the “Binding of serum 37 to linear peptides of protein X1 of SARS-CoV Urbani” value amounted to 0.6, the “Binding of serum 37 to looped/cyclic peptides of protein X1 of SARS-CoV Urbani” value is reported as 0.6, the “Binding of serum 62 to linear peptides of protein X1 of SARS-CoV Urbani” value worked out at 0.5 and the “Binding of serum 62 to looped/cyclic peptides of protein X1 of SARS-CoV Urbani” value came out at 0.5. Further, in assay [3], the “Binding of serum London to linear peptides of protein X1 of SARS-CoV Urbani” value worked out at 0.2, the “Binding of serum London to looped/cyclic peptides of protein X1 of SARS-CoV Urbani” value is listed as 0.2, the “Binding of serum SARS-green to linear peptides of protein X1 of SARS-CoV Urbani” value was found to be 0.2 and the “Binding of serum SARS-green to looped/cyclic peptides of protein X1 of SARS-CoV Urbani” value is reported as 0.2. Moreover, in assay [3], the “Binding of serum SARS-yellow to linear peptides of protein X1 of SARS-CoV Urbani” value is 0.3 and the “Binding of serum SARS-yellow to looped/cyclic peptides of protein X1 of SARS-CoV Urbani” value is 0.5.

As for KIILFLTLIVFTSCE, in assay [1], the “Binding of Control Serum Blood-Bank to Looped peptides” value was 0.8, the “Binding of Control serum Blood-bank to linear peptides” value is 0.8, the “Binding of Control serum LUMC to linear peptides” value is 0.9 and the “Binding of Control serum LUMC to looped peptides” value was determined as 0.9. Also, in assay [2], the “Rabbit serum linear peptides” value is listed as 0.7 and the “Rabbit serum looped peptides” value came out at 0.9. Also, in assay [3], the “Binding of serum 1a to linear peptides of protein X4 of SARS-CoV Urbani” value came to 0.8, the “Binding of serum 1a to looped/cyclic peptides of protein X4 of SARS-CoV Urbani” value is listed as 0.9, the “Binding of serum 1b to linear peptides of protein X4 of SARS-CoV Urbani” value stood at 0.9 and the “Binding of serum 1b to looped/cyclic peptides of protein X4 of SARS-CoV Urbani” value is reported as 0.2. Further, in assay [3], the “Binding of serum 2 to linear peptides of protein X4 of SARS-CoV Urbani” value is recorded as 0.7, the “Binding of serum 2 to looped/cyclic peptides of protein X4 of SARS-CoV Urbani” value stood at 0.8, the “Binding of serum 6 to linear peptides of protein X4 of SARS-CoV Urbani” value amounted to 0.7 and the “Binding of serum 6 to looped/cyclic peptides of protein X4 of SARS-CoV Urbani” value stood at 0.6. In assay [3], the “Binding of serum 37 to linear peptides of protein X4 of SARS-CoV Urbani” value came to 1.1, the “Binding of serum 37 to looped/cyclic peptides of protein X4 of SARS-CoV Urbani” value came to 0.9, the “Binding of serum 62 to linear peptides of protein X4 of SARS-CoV Urbani” value is on record as 0.9 and the “Binding of serum 62 to looped/cyclic peptides of protein X4 of SARS-CoV Urbani” value was 0.9. Moreover, in assay [3], the “Binding of serum London to linear peptides of protein X4 of SARS-CoV Urbani” value was determined as 0.8, the “Binding of serum London to looped/cyclic peptides of protein X4 of SARS-CoV Urbani” value was found to be 0.4, the “Binding of serum SARS-green to linear peptides of protein X4 of SARS-CoV Urbani” value came out at 0.7 and the “Binding of serum SARS-green to looped/cyclic peptides of protein X4 of SARS-CoV Urbani” value stood at 0.7. In addition, in assay [3], the “Binding of serum SARS-yellow to linear peptides of protein X4 of SARS-CoV Urbani” value was determined as 0.9 and the “Binding of serum SARS-yellow to looped/cyclic peptides of protein X4 of SARS-CoV Urbani” value was determined as 0.8.
